For the assay, the target named is T1, human Nav1.1 (Homo sapiens, UniProt P35498).
T1 construct: host or cells: HEK293
The assay can be described thus: Amplification of Nav1.1-derived voltage-gated sodium current (Nav1.1 current), automated patch clamp (Test 1). The assay is classed as cell-based. The following applies: for activation at 1 µM: HEK293, concentration for evaluation 1 μM. The procedure, abridged: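 HEK293 cells stably expressing human Nav1.1, restricted to cells with >500 pA current, were recorded by automated voltage-clamp patch clamp with a ramp voltage stimulus. Compounds were applied in HEPES-buffered extracellular solution with 1% DMSO. Amplification (%) = 100×(peak or AUC after/before compound)−100.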

Setting [1] is: Concentration for evaluation 1 μM, HEK293 cell line stably expressing human Nav1.1.
Setting [2] is: concentration for evaluation 1 μM, HEK293 stably expressing human Nav1.1.
Setting [3] is: Concentration for evaluation 10 μM, HEK293 cell line stably expressing human Nav1.1.
Setting [4] is: Concentration for evaluation 50 μM, HEK293 cell line stably expressing human Nav1.1.
Setting [5] is: Concentration for evaluation 3 μM, HEK293 cell line stably expressing human Nav1.1.
[6] abbreviates: HEK293 stably expressing human Nav1.1, read-out: Nav1.1 current amplification rate (%).

`CN(CC1CC1)c1cnc2cnn(CC(=O)Nc3ccc4ncnn4c3)c2n1` [Example 663]: under setting [1], the “Nav1.1 current amplification rate (%)” value is recorded as 13%.
For `O=C(Cn1ncc2cnc(N3CCC4(CCC4)CC3)nc21)Nc1ccc2cncnc2c1` [Example 808], the “Nav1.1 current amplification rate (%)” value under setting [2] is listed as 226%.
Consider `N#Cc1ccc(NC(=O)Cn2nc(N3CCC(C(F)(F)F)CC3)ccc2=O)cc1` [Example 10], for which the “Nav1.1 current amplification rate (%)” value under setting [3] is on record as 124%.
As to `CN(c1ccc2cnn(CC(=O)Nc3ccn4ncnc4c3)c2n1)C1CCCC1` [Example 862], under setting [2], the “Nav1.1 current amplification rate (%)” value stood at 97%.
In the case of `CC1CC=C(c2ccc(=O)n(CC(=O)N3CC=C(c4cccnc4)C3)n2)CC1` (stereo not shown) [Example 386], the “Nav1.1 current amplification rate (%)” value under setting [4] came to 126%.
For the molecule `COc1cc(-c2cc(Cl)cs2)nn(CC(=O)Nc2ccn3ccnc3c2)c1=O` [Example 466], under setting [3], the “Nav1.1 current amplification rate (%)” value came out at 233%.
`N#Cc1ccc(NC(=O)Cn2nc(N3CCCC4(CCC4)C3)ccc2=O)cc1` [Example 33]: the “Nav1.1 current amplification rate (%)” value under setting [3] was found to be 220%.
Consider `CC1CCN(c2ccc(=O)n(CC(=O)Nc3cccc(-c4cnco4)c3)n2)CC1` [Example 77], for which the “Nav1.1 current amplification rate (%)” value under setting [3] is listed as 93%.
Still for that read-out and setting: the result for `CC1CC=C(c2ccc(=O)n(CC(=O)N3CCC(Cc4ccccc4)C3)n2)CC1` (stereo not shown) [Example 389] reads 53%.
Turning to `CC1CC=C(c2ccc(=O)n(CC(=O)Nc3cccc4nccn34)n2)CC1` (stereo not shown) [Example 255], the “Nav1.1 current amplification rate (%)” value under setting [3] came to 32%.
Still for that read-out and setting: the result for `Cc1noc2ccc(NC(=O)Cn3nc(N4CCC(C)CC4)ccc3=O)cc12` [Example 70] reads 68%.
Regarding `CC1CC=C(c2ccc(=O)n(CC(=O)N3CCc4c(CN5CC=CC5)cccc43)n2)CC1` (stereo not shown) [Example 287], the “Nav1.1 current amplification rate (%)” value under setting [1] is recorded as 73%.
For the molecule `CC1CCN(c2ccc(=O)n(CC(=O)Nc3cncnc3)n2)CC1` [Example 56], the “Nav1.1 current amplification rate (%)” value under setting [3] worked out at 10%.
Consider `COC1CCN(c2ccc(=O)n(CC(=O)Nc3ccc(C#N)cc3)n2)CC1` [Example 9], for which the “Nav1.1 current amplification rate (%)” value under setting [3] turned out to be 11%.
In the case of `CC1CC=C(c2ccc(=O)n(CC(=O)N3CCc4c(C5CCN(C)C5)cccc43)n2)CC1` (stereo not shown) [Example 269], the “Nav1.1 current amplification rate (%)” value under setting [5] worked out at 127%.
Take `CN(CC1CCC1)c1ccc2cnn(CC(=O)Nc3ccc4ncnn4c3)c2n1` [Example 873]: the “Nav1.1 current amplification rate (%)” value under setting [2] is listed as 89%.
On to `CC1CC=C(c2ccc(=O)n(CC(=O)Nc3ccc4c(cnn4C)c3)n2)CC1` (stereo not shown) [Example 336], for which the “Nav1.1 current amplification rate (%)” value under setting [1] came to 68%.
As for `CC1(C)CCCN(c2ccc(=O)n(CC(=O)Nc3ccc(C#N)cc3)n2)C1` [Example 22], the “Nav1.1 current amplification rate (%)” value under setting [3] is given as 110%.
As for `N#Cc1ccc(NC(=O)Cn2nc(N3CCC4(CC4)C3)ccc2=O)cc1` [Example 25], the “Nav1.1 current amplification rate (%)” value under setting [3] was 163%.
On the same count and under the same terms, next, `CC1CCN(c2ccc(=O)n(CC(=O)Nc3ccc4oc(N(C)C)nc4c3)n2)CC1` [Example 91]: 93%.
`N#Cc1ccc(-c2ncc3cnn(CC(=O)Nc4ccn5ncnc5c4)c3n2)s1` [Example 778]: the “Nav1.1 current amplification rate (%)” value under setting [4] was 13%.
With `CC1CC=C(c2ccc(=O)n(CC(=O)N3CCc4c(C5=CCN(C)C5)cccc43)n2)CC1` (stereo not shown) [Example 267], the “Nav1.1 current amplification rate (%)” value under setting [5] amounted to 231%.
On to `CN(c1cnc2cnn(CC(=O)N3CCc4c(C5=CCOCC5)cccc43)c2n1)C1CCC1` [Example 688], for which the “Nav1.1 current amplification rate (%)” value under setting [1] was 201%.
`Cc1ncc(-c2cccc3c2CCN3C(=O)Cn2nc(C3=CCC(C)CC3)ccc2=O)cn1` (stereo not shown) [Example 264]: the “Nav1.1 current amplification rate (%)” value under setting [5] came to 597%.
Take `CC1CC=C(c2ccc(=O)n(CC(=O)N3CCc4c3ccnc4C3=CCN(C(=O)OC(C)(C)C)C3)n2)CC1` (stereo not shown) [Example 280]: the “Nav1.1 current amplification rate (%)” value under setting [1] was determined as 10%.
Turning to `CN(c1ncc2cnn(CC(=O)Nc3cnc4cccnc4c3)c2n1)C1CC1` [Example 841], the activation at 1 µM under setting [6] came out at 28%.
As to `CC1CC=C(c2ccc(=O)n(CC(=O)N3CCc4c(Cn5ccnc5)cccc43)n2)CC1` (stereo not shown) [Example 286], the “Nav1.1 current amplification rate (%)” value under setting [1] turned out to be 848%.
With `N#Cc1ccc(NC(=O)Cn2nc(C3=CCCCC3)ccc2=O)cc1` [Example 39], the “Nav1.1 current amplification rate (%)” value under setting [3] was 125%.
Consider `CC1CC=C(c2ccc(=O)n(CC(=O)Nc3ccc4nccn4c3)n2)CC1` (stereo not shown) [Example 343], for which the “Nav1.1 current amplification rate (%)” value under setting [1] amounted to 44%.
As for `CN(c1ncc2cnn(CC(=O)Nc3ccn4ncnc4c3)c2n1)C1CC2(CC2)C1` [Example 802], the “Nav1.1 current amplification rate (%)” value under setting [2] is listed as 111%.
With `CC1CCN(c2ncc3cnn(CC(=O)Nc4ccc5cncnc5c4)c3n2)CC1` [Example 806], the “Nav1.1 current amplification rate (%)” value under setting [2] is listed as 262%.
In the case of `CC1CC=C(c2ccc(=O)n(CC(=O)Nc3cncc(-c4cnn(C)c4)c3)n2)CC1` (stereo not shown) [Example 378], under setting [1], the “Nav1.1 current amplification rate (%)” value turned out to be 37%.
As to `O=C(Cn1ncc2cnc(N3CCC4(CCC4)C3)nc21)Nc1ccn2ccnc2c1` [Example 834], the activation at 1 µM under setting [6] was found to be 26%.
For the molecule `COc1cncc(C2=CCN(C(=O)Cn3nc(C4=CCC(C)CC4)ccc3=O)CC2)c1` (stereo not shown) [Example 403], under setting [3], the “Nav1.1 current amplification rate (%)” value is listed as 270%.
Regarding `CC1CC=C(c2ccc(=O)n(CC(=O)N3CCc4c(-c5cn[nH]c5)cncc43)n2)CC1` (stereo not shown) [Example 311], under setting [1], the “Nav1.1 current amplification rate (%)” value was 265%.
Still for that read-out and setting: the result for `CN1CC(c2cccc3c2CCN3C(=O)Cn2ncc3ncc(N(C)C4CCC4)nc32)C1` [Example 698] reads 18%.
Consider `CC1CC=C(c2ccc(=O)n(CC(=O)N3CCN(c4ccccn4)CC3)n2)CC1` (stereo not shown) [Example 394], for which the “Nav1.1 current amplification rate (%)” value under setting [3] is recorded as 98%.
On to `O=C(Cn1nc(C2=CCCCC2)ccc1=O)N1CCc2c(N3CCOCC3)cccc21` [Example 480], for which the “Nav1.1 current amplification rate (%)” value under setting [1] is on record as 110%.
In the case of `CN(c1cnc2cnn(CC(=O)N3CC=C(c4cccnc4)CC3)c2n1)C1CC1` [Example 700], the “Nav1.1 current amplification rate (%)” value under setting [5] amounted to 13%.
Turning to `CC1CC=C(c2ccc3cnn(CC(=O)N4CCN(c5cccnc5)CC4)c3c2)CC1` (stereo not shown) [Example 893], under “HEK293, concentration for evaluation 10 μM, HEK293 stably expressing human Nav1.1, read-out: Nav1.1 current amplification rate (%)”, the activation at 10 µM amounted to 31%.
Take `CC(=O)N1CC(c2cccc3c2CCN3C(=O)Cn2ncc3ncc(N(C)C4CCC4)nc32)C1` [Example 695]: the “Nav1.1 current amplification rate (%)” value under setting [1] amounted to 219%.
For the molecule `O=C(Cn1nc(C2=CCC(C(F)(F)F)CC2)ccc1=O)Nc1ccc2ocnc2c1` (racemic) [Example 446], the “Nav1.1 current amplification rate (%)” value under setting [3] is on record as 333%.
As to `CN(c1cnc2cnn(CC(=O)N3CCN(c4cccc(F)c4)CC3)c2n1)C1CC1` [Example 714], under setting [5], the “Nav1.1 current amplification rate (%)” value turned out to be 11%.
As for `COc1cc(C2=CCC(C)CC2)nn(CC(=O)N2CCc3c(N4CCOCC4)cccc32)c1=O` (stereo not shown) [Example 473], the “Nav1.1 current amplification rate (%)” value under setting [3] worked out at 487%.
In the case of `CC1CCN(c2ccc3cnn(CC(=O)Nc4ccc5ncnn5c4)c3n2)CC1` [Example 872], the “Nav1.1 current amplification rate (%)” value under setting [2] was determined as 38%.
In the case of `CC1CC=C(c2ccc(=O)n(CC(=O)Nc3ccc4cncnc4c3)n2)CC1` (stereo not shown) [Example 356], the “Nav1.1 current amplification rate (%)” value under setting [1] is given as 378%.
For `O=C(Cn1ncc2ccc(C3=CCC(F)(F)CC3)nc21)Nc1ccn2ccnc2c1` [Example 867], under setting [2], the “Nav1.1 current amplification rate (%)” value is listed as 65%.
In the case of `CC1CC=C(c2ccc(=O)n(CC(=O)Nc3ccc4oc(CN5CCOCC5)nc4c3)n2)CC1` (stereo not shown) [Example 331], the “Nav1.1 current amplification rate (%)” value under setting [5] was found to be 64%.
Take `CC1CC=C(c2ccc(=O)n(CC(=O)Nc3cncc(C4=CCOC4)c3)n2)CC1` (stereo not shown) [Example 381]: under setting [1], the “Nav1.1 current amplification rate (%)” value is recorded as 153%.

(Values after US20230109839A1, “THERAPEUTIC AGENT FOR TAUOPATHIES” (SUMITOMO PHARMA CO., LTD., priority 2020, published 2023).)
